The record followed here is US12344610B2, “APOL1 inhibitors and methods of use” (Maze Therapeutics, Inc., priority 2022, dated 2025).

Common to all, as to format: cell-based
What all share (settings): geometric mean of at least 2 assay runs, † = single assay run

Experiment [1] has as its system HEK293 cells overexpressing APOL1 G2. Briefly: APOL1 G2 HEK293 cell rescue assay (reversal of cell death caused by overexpression of APOL1). Summed up:
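EC50 is the half-maximal effective concentration for reversing cell death driven by APOL1 G2 overexpression in HEK293 cells. Reported as geometric mean of at least 2 runs on separate days, each run averaging duplicate wells per plate; some values from a single run.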

Experiment [2] relates to Trypanosoma brucei Lister 427 VSG221 with APOL1 G0 recombinant protein. Put plainly: APOL1 G0 trypanosome cell rescue assay (Example B5). In a few lines:
(§1)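 Mature APOL1 (residues 28-398, E. coli-expressed, His-tag removed by TEV) was added as a 2 μg/mL solution to T. brucei Lister 427 VSG221 in modified HMI-9 medium at 250 cells/well, with duplicate 11-point 2-fold compound dilutions (0.4% DMSO). After 20 h at 37° C, 5% CO2, viability was read by CellTiter-Glo luminescence.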

Experiment [3] deals with Trypanosoma brucei Lister 427 VSG221 with APOL1 G1 recombinant protein. Briefly: APOL1 G1 trypanosome cell rescue assay (Example B5). In a few lines: as §1
Setting [4] is: Homo sapiens, HEK293, HEK293 overexpressing APOL1 G2.
Where [5] appears, read: Trypanosoma brucei, 20 h, read-out: APOL1 G0 Trypanosome Rescue EC50, Trypanosoma brucei Lister 427 VSG221 with APOL1 G0 recombinant protein, 20 hours, CellTiter-Glo.
The mark [6] stands for this setting: Trypanosoma brucei, 20 h, read-out: APOL1 G1 Trypanosome Rescue EC50, Trypanosoma brucei Lister 427 VSG221 with APOL1 G1 recombinant protein, 20 hours, CellTiter-Glo.
Setting [7] is: read-out: APOL1 G0 Trypanosome Rescue EC50, Trypanosoma brucei Lister 427 VSG221 with APOL1 G0 recombinant protein, 20 hours, CellTiter-Glo.
The mark [8] stands for this setting: read-out: APOL1 G1 Trypanosome Rescue EC50, Trypanosoma brucei Lister 427 VSG221 with APOL1 G1 recombinant protein, 20 hours, CellTiter-Glo.

Where two headings read alike, the source gives them in different places.

By EC50 is commonly meant the concentration at which the effect is half-maximal. In the case of `CS(=O)(=O)C1(c2ccc(OCCN3CCC4(CC3)C(=O)Nc3ccc(Cl)cc34)cc2C(F)(F)F)COC1` [Compound 165, 5-chloro-1′-{2-[4-(3-methanesulfonyloxetan-3-yl)-3-(trifluoromethyl)phenoxy]ethyl}-1,2-dihydrospiro[indole-3,4′-piperidin]-2-one], the figures for the EC50 in experiment [1] (setting [4]), in experiment [2] (setting [5]) and in experiment [3] (setting [6]) were 21.2 nM, 28.7 nM and 33.8 nM, respectively.
In the case of `CS(=O)(=O)C1(c2ccc(OCCN3CCC4(CC3)C(=O)Nc3ccc(Cl)cc34)cc2)CC1` [Compound 102, 5-chloro-1′-{2-[4-(1-methanesulfonylcyclopropyl)phenoxy]ethyl}-1,2-dihydrospiro[indole-3,4′-piperidin]-2-one], the EC50 worked out at 31.4 nM in experiment [1] (setting [4]), 47.3 nM in experiment [2] (setting [5]) and 50.5 nM in experiment [3] (setting [6]).
Turning to `CS(=O)(=O)c1ccc(OCCN2CCC3(CC2)C(=O)Nc2ccc(Cl)cc23)cc1C(F)(F)F` [Compound 108, 5-chloro-1′-{2-[4-methanesulfonyl-3-(trifluoromethyl)phenoxy]ethyl}-1,2-dihydrospiro[indole-3,4′-piperidin]-2-one], the EC50 in experiment [1] (setting [4]) was 16.9 nM; in experiment [2] (setting [5]), 23.3 nM; in experiment [3] (setting [6]), 30.7 nM.
Turning to `CN1CCc2cc(OCCN3CCC4(CC3)C(=O)Nc3ccc(Cl)cc34)ccc2S1(=O)=O` [Compound 153, 6-(2-{5-chloro-2-oxo-1,2-dihydrospiro[indole-3,4′-piperidin]-1′-yl}ethoxy)-2-methyl-3,4-dihydro-2H-1λ^6,2-benzothiazine-1,1-dione], the EC50 in experiment [1] (setting [4]) is 22.1 nM; in experiment [2] (setting [5]), 52.2 nM; in experiment [3] (setting [6]), 66.7 nM.
For `Cc1cc(OCCN2CCC3(CC2)C(=O)Nc2ccc(Cl)cc23)cnc1S(C)(=O)=O` [Compound 161, 5-chloro-1′-{2-[(6-methanesulfonyl-5-methylpyridin-3-yl)oxy]ethyl}-1,2-dihydrospiro[indole-3,4′-piperidin]-2-one], the EC50 stood at 46.4 nM in experiment [1] (setting [4]), 76.3 nM in experiment [2] (setting [5]) and 107 nM in experiment [3] (setting [6]).
The corresponding values for `O=C1Nc2ccc(Cl)cc2C12CCN(CCOc1ccc(S(=O)(=O)C(F)F)cc1)CC2` [Compound 112, 5-chloro-1′-[2-(4-difluoromethanesulfonylphenoxy)ethyl]-1,2-dihydrospiro[indole-3,4′-piperidin]-2-one] are 47.2 nM, 58.2 nM and 69.6 nM.
`CS(=O)(=O)C1(c2ccc(OCCN3CCC4(CC3)C(=O)N(CC(F)(F)F)c3ccc(Cl)cc34)cc2)COC1` [Compound 185, 5-chloro-1′-{2-[4-(3-methanesulfonyloxetan-3-yl)phenoxy]ethyl}-1-(2,2,2-trifluoroethyl)-1,2-dihydrospiro[indole-3,4′-piperidin]-2-one]: the EC50 in experiment [1] (setting [4]) was found to be 113 nM; in experiment [2] (setting [5]), 310 nM; in experiment [3] (setting [6]) it was 479 nM.
Turning to `CC(c1c(F)cc(OCCN2CCC3(CC2)C(=O)Nc2ccc(C#N)cc23)cc1F)S(C)(=O)=O` (single isomer, unassigned) [Compound 139, (R) or (S)-1′-{2-[3,5-difluoro-4-(1-methanesulfonylethyl)phenoxy]ethyl}-2-oxo-1,2-dihydrospiro[indole-3,4′-piperidine]-5-carbonitrile], the half-maximal effective concentration (EC50) came out at 133 nM in experiment [1] (HEK293 overexpressing APOL1 G2), 335 nM in experiment [2] (setting [7]) and 537 nM in experiment [3] (setting [8]).
Turning to `CC(c1ccc(OCCN2CCC3(CC2)C(=O)Nc2ccc(C#N)cc23)cc1)S(C)(=O)=O` (single isomer, unassigned) [Compound 134, (S) or (R)-1′-{2-[4-(1-methanesulfonylethyl)phenoxy]ethyl}-2-oxo-1,2-dihydrospiro[indole-3,4′-piperidine]-5-carbonitrile], the EC50 in experiment [1] (setting [4]) worked out at 199 nM; in experiment [2] (setting [5]), 851 nM; in experiment [3] (setting [6]), 991 nM.
For `CN(c1c(F)cc(OCCN2CCC3(CC2)C(=O)Nc2ccc(Cl)cc23)cc1F)S(C)(=O)=O` [Compound 127, N-[4-(2-{5-chloro-2-oxo-1,2-dihydrospiro[indole-3,4′-piperidin]-1′-yl}ethoxy)-2,6-difluorophenyl]-N-methylmethanesulfonamide] the same measures were 20.8 nM, 64.9 nM and 83.9 nM.
As to `CN=S(C)(=O)c1ccc(OCCN2CCC3(CC2)C(=O)Nc2ccc(C#N)cc23)cc1` (single isomer, unassigned) [Compound 152, (R) or (S)-1′-(2-{4-[methyl(methylimino)oxo-λ^6-sulfanyl]phenoxy}ethyl)-2-oxo-1,2-dihydrospiro[indole-3,4′-piperidine]-5-carbonitrile], the values for the EC50 in experiment [1] (HEK293 overexpressing APOL1 G2), in experiment [2] (setting [7]) and in experiment [3] (setting [8]) were 405 nM, 1050 nM and 1530 nM, respectively.
Regarding `Cn1c(=O)oc2cc(OCCN3CCC4(CC3)C(=O)Nc3ccc(Cl)cc34)ccc21` [Compound 131, 5-chloro-1′-{2-[(3-methyl-2-oxo-2,3-dihydro-1,3-benzoxazol-6-yl)oxy]ethyl}-1,2-dihydrospiro[indole-3,4′-piperidin]-2-one], the EC50 in experiment [1] (setting [4]) stood at 68 nM; in experiment [2] (setting [5]) it was 132 nM; in experiment [3] (setting [6]) it was 176 nM.
On to `CC(C)N1C(=O)Cc2cc(OCCN3CCC4(CC3)C(=O)Nc3ccc(Cl)cc34)ccc21` [Compound 145, 5-chloro-1′-(2-{[2-oxo-1-(propan-2-yl)-2,3-dihydro-1H-indol-5-yl]oxy}ethyl)-1,2-dihydrospiro[indole-3,4′-piperidin]-2-one], for which the figures for the EC50 in experiment [1] (setting [4]), in experiment [2] (setting [5]) and in experiment [3] (setting [6]) were 50.4 nM, 86.5 nM and 118 nM, respectively.
For `CC(C)n1ncc2cc(OCCN3CCC4(CC3)C(=O)Nc3ccc(Cl)cc34)ccc21` [Compound 16, 5-chloro-1′-(2-{[1-(propan-2-yl)-1H-indazol-5-yl]oxy}ethyl)-1,2-dihydrospiro[indole-3,4′-piperidin]-2-one] the same measures were 112 nM, 267 nM and 312 nM.
As to `Cc1cc(OCCN2CCC3(CC2)C(=O)Nc2ccc(C#N)cc23)ccc1S(C)(=O)=O` [Compound 111, 1′-[2-(4-methanesulfonyl-3-methylphenoxy)ethyl]-2-oxo-1,2-dihydrospiro[indole-3,4′-piperidine]-5-carbonitrile], the EC50 in experiment [1] (setting [4]) worked out at 142 nM; in experiment [2] (setting [5]) it was 282 nM; in experiment [3] (setting [6]), 362 nM.
With `CN=S(C)(=O)c1ccc(OCCN2CCC3(CC2)C(=O)Nc2ccc(C#N)cc23)cc1` (single isomer, unassigned) [Compound 151, (S) or (R)-1′-(2-{4-[methyl(methylimino)oxo-λ^6-sulfanyl]phenoxy}ethyl)-2-oxo-1,2-dihydrospiro[indole-3,4′-piperidine]-5-carbonitrile], the EC50 came to 397 nM in experiment [1] (setting [4]), 1040 nM in experiment [2] (setting [5]) and 1330 nM in experiment [3] (setting [6]).
On to `CS(=O)(=O)C1(c2ccc(OCCN3CCC4(CC3)C(=O)Nc3ccc(Cl)cc34)cc2)CCC1` [Compound 180, 5-chloro-1′-{2-[4-(1-methanesulfonylcyclobutyl)phenoxy]ethyl}-1,2-dihydrospiro[indole-3,4′-piperidin]-2-one], for which the EC50 in experiment [1] (setting [4]) amounted to 22.1 nM; in experiment [2] (setting [5]), 35.2 nM; in experiment [3] (setting [6]), 47.7 nM.
The corresponding values for `CC(C)(c1ccc(OCCN2CCC3(CC2)C(=O)Nc2ccc(C#N)cc23)cn1)S(C)(=O)=O` [Compound 191, 1′-(2-{[6-(2-methanesulfonylpropan-2-yl)pyridin-3-yl]oxy}ethyl)-2-oxo-1,2-dihydrospiro[indole-3,4′-piperidine]-5-carbonitrile] are 130 nM, 251 nM and 304 nM.
In the case of `Cc1cc(OCCN2CCC3(CC2)C(=O)Nc2ccc(C#N)cc23)cnc1S(C)(=O)=O` [Compound 140, 1′-{2-[(6-methanesulfonyl-5-methylpyridin-3-yl)oxy]ethyl}-2-oxo-1,2-dihydrospiro[indole-3,4′-piperidine]-5-carbonitrile], the EC50 in experiment [1] (setting [4]) came out at 172 nM; in experiment [2] (setting [5]), 408 nM; in experiment [3] (setting [6]), 653 nM.
Take `CS(=O)(=O)c1ccc(OCCN2CCC3(CC2)C(=O)Nc2ccc(C#N)cc23)cc1C(F)F` [Compound 100, 1′-{2-[3-(difluoromethyl)-4-methanesulfonylphenoxy]ethyl}-2-oxo-1,2-dihydrospiro[indole-3,4′-piperidine]-5-carbonitrile]: the figures for the EC50 in experiment [1] (setting [4]), in experiment [2] (setting [5]) and in experiment [3] (setting [6]) were 46.5 nM, 63.5 nM and 113 nM, respectively.
Regarding `CC1(Oc2ncc(OCCN3CCC4(CC3)C(=O)Nc3ccc(Cl)cc34)cn2)COC1` [Compound 172, 5-chloro-1′-[2-({2-[(3-methyloxetan-3-yl)oxy]pyrimidin-5-yl}oxy)ethyl]-1,2-dihydrospiro[indole-3,4′-piperidin]-2-one], the EC50 came out at 99.1 nM in experiment [1] (setting [4]), 246 nM in experiment [2] (setting [5]) and 353 nM in experiment [3] (setting [6]).
